Tested on: P12-Ichikawa
Assay: cell viability relative to DMSO control; higher = less cytotoxic
Settings: 48 h
Method in brief: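 Library compounds in DMSO were pin-dosed into 1536-well plates (5 μl) holding NOMO1 or SEM (500 cells/well) or P12-Ichikawa (1000 cells/well) leukemia cells, across an 11-point threefold series of 47 μM to 0.79 nM. Each cell line had been adapted for at least four passages in each medium. CellTiter-Glo One luminescence was read after 48 h at 37°C. Viability is the per-plate percentage relative to DMSO wells, with cell-free wells as background.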

[1] = HPLM + 10% dialyzed FBS, 0.000781 µM
[2] = HPLM + 10% dialyzed FBS, 0.00234 µM
[3] = HPLM + 10% dialyzed FBS, 0.00702 µM
[4] = HPLM + 10% dialyzed FBS, 0.0211 µM
[5] = HPLM + 10% dialyzed FBS, 0.0632 µM
[6] = HPLM + 10% dialyzed FBS, 0.19 µM
[7] = HPLM + 10% dialyzed FBS, 0.569 µM
[8] = HPLM + 10% dialyzed FBS, 1.71 µM
[9] = HPLM + 10% dialyzed FBS, 5.12 µM
[10] = HPLM + 10% dialyzed FBS, 15.4 µM
[11] = HPLM + 10% dialyzed FBS, 46.1 µM
[12] = RPMI 5 mM glucose + 10% FBS, 0.000781 µM
[13] = RPMI 5 mM glucose + 10% FBS, 0.00234 µM
[14] = RPMI 5 mM glucose + 10% FBS, 0.00702 µM
[15] = RPMI 5 mM glucose + 10% FBS, 0.0211 µM
[16] = RPMI 5 mM glucose + 10% FBS, 0.0632 µM
[17] = RPMI 5 mM glucose + 10% FBS, 0.19 µM
[18] = RPMI 5 mM glucose + 10% FBS, 0.569 µM
[19] = RPMI 5 mM glucose + 10% FBS, 1.71 µM
[20] = RPMI 5 mM glucose + 10% FBS, 5.12 µM
[21] = RPMI 5 mM glucose + 10% FBS, 15.4 µM
[22] = RPMI 5 mM glucose + 10% FBS, 46.1 µM
[23] = RPMI 5 mM glucose + 10% dialyzed FBS, 0.000781 µM
[24] = RPMI 5 mM glucose + 10% dialyzed FBS, 0.00234 µM
[25] = RPMI 5 mM glucose + 10% dialyzed FBS, 0.00702 µM
[26] = RPMI 5 mM glucose + 10% dialyzed FBS, 0.0211 µM
[27] = RPMI 5 mM glucose + 10% dialyzed FBS, 0.0632 µM
[28] = RPMI 5 mM glucose + 10% dialyzed FBS, 0.19 µM
[29] = RPMI 5 mM glucose + 10% dialyzed FBS, 0.569 µM
[30] = RPMI 5 mM glucose + 10% dialyzed FBS, 1.71 µM
[31] = RPMI 5 mM glucose + 10% dialyzed FBS, 5.12 µM
[32] = RPMI 5 mM glucose + 10% dialyzed FBS, 15.4 µM
[33] = RPMI 5 mM glucose + 10% dialyzed FBS, 46.1 µM

Row | SMILES | cell viability [1] [%] | cell viability [2] [%] | cell viability [3] [%] | cell viability [4] [%] | cell viability [5] [%] | cell viability [6] [%] | cell viability [7] [%] | cell viability [8] [%] | cell viability [9] [%] | cell viability [10] [%] | cell viability [11] [%] | cell viability [12] [%] | cell viability [13] [%] | cell viability [14] [%] | cell viability [15] [%] | cell viability [16] [%] | cell viability [17] [%] | cell viability [18] [%] | cell viability [19] [%] | cell viability [20] [%] | cell viability [21] [%] | cell viability [22] [%] | cell viability [23] [%] | cell viability [24] [%] | cell viability [25] [%] | cell viability [26] [%] | cell viability [27] [%] | cell viability [28] [%] | cell viability [29] [%] | cell viability [30] [%] | cell viability [31] [%] | cell viability [32] [%] | cell viability [33] [%]
1 | C[C@@]12C(=O)OC(=O)[C@@]1(C)C1CCC2O1 | 106 | 103 | 106 | 112 | 111 | 108 | 109 | 92.2 | 90 | 13.2 | 12.4 | 110 | 102 | 102 | 109 | 106 | 98.9 | 103 | 102 | 92.3 | 8.07 | 6.24 | 104 | 111 | 109 | 104 | 105 | 109 | 105 | 97.5 | 93.3 | 10.6 | 7.9
2 | Cc1onc(-c2ccccc2Cl)c1C(=O)N[C@@H]1C(=O)N2[C@@H]1SC(C)(C)[C@@H]2C(=O)[O-] | 112 | 116 | 113 | 116 | 113 | 113 | 113 | 111 | 110 | 105 | 106 | 119 | 117 | 113 | 111 | 116 | 114 | 116 | 110 | 117 | 101 | 101 | 103 | 111 | 115 | 119 | 126 | 109 | 120 | 105 | 112 | 98.4 | 98.1
3 | C[C@]12CC[C@@H]3c4ccc(O)cc4CC[C@H]3[C@@H]1[C@@H](O)[C@@H](O)[C@@H]2O | 119 | 117 | 119 | 112 | 120 | 124 | 122 | 120 | 119 | 125 | 124 | 105 | 113 | 109 | 104 | 123 | 118 | 122 | 121 | 126 | 131 | 113 | 111 | 120 | 118 | 115 | 120 | 127 | 127 | 133 | 127 | 129 | 135

Source: the supplement of paper PMC11451515
